Results on 37 compounds are retold here after the supplement of paper PMC10949913.

Each structure is given as a SMILES string.

Common to all, as to assay: area under concentration-response curve (viability) (AUC (a.u.)); higher = less active
What all share (details): 48 h

One test has as its system CU-ACC1. In short, it runs like this: (§1)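 Library compounds were tested at 11 concentrations against three adrenocortical carcinoma cell lines in 1,536-well plates. CellTiter-Glo luminescence was read after 48 h and normalised per plate to vehicle and empty-well controls. Only inhibitory or non-responding curve classes from fitted concentration-response curves contributed AC50 and area under the curve.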

Another test has as its system CU-ACC2. Put shortly: as §1
The test system of the next test is NCI-H295R. Put shortly: as §1

In the case of `CCCc1cc(C(N)=S)ccn1`, the “area under concentration-response curve” value in the test on CU-ACC1 was 587; in the test on CU-ACC2, 649; in the test with NCI-H295R, 581.
On the same counts, the results for `CCC(=O)O[C@@]1([C@H](C)C[C@H]2[C@@H]3C[C@H](F)\C4=C\C(=O)\C=C/[C@]4(C)[C@@]3(F)[C@@H](O)C[C@]12C)C(=O)SCF` are 372, 484 and 510.
Take `COc1ccc([C@@H]2CC(=O)c3c(O)cc(O[C@@H]4O[C@H](CO[C@@H]5O[C@@H](C)[C@H](O)[C@@H](O)[C@H]5O)[C@@H](O)[C@H](O)[C@H]4O)cc3O2)cc1O`: the figures for the “area under concentration-response curve” value in the test with CU-ACC1, with CU-ACC2 and in the test on NCI-H295R were 480, 593 and 547, respectively.
On the same counts, the results for `CCCCCCCCCC(=O)N[C@@H](Cc1c[nH]c2ccccc12)C(=O)N[C@H](CC(N)=O)C(=O)N[C@@H](CC(=O)O)C(=O)N[C@@H]1C(=O)NCC(=O)N[C@@H](CCCN)C(=O)N[C@@H](CC(=O)O)C(=O)N[C@H](C)C(=O)N[C@@H](CC(=O)O)C(=O)NCC(=O)N[C@H](CO)C(=O)N[C@@H]([C@@H](C)CC(=O)O)C(=O)N[C@@H](CC(=O)c2ccccc2N)C(=O)O[C@@H]1C` are 485, 606 and 496.
As to `Oc1cc(O)cc(/C=C/c2ccc(O)c(O)c2)c1`, the “area under concentration-response curve” value in the test on CU-ACC1 amounted to 519; in the test with CU-ACC2 it was 511; with NCI-H295R, 525.
On the same counts, the results for `CN1CCN(C)C(=O)C1C2=CC=C(N/C3=N/C(=C\N(C)C3=O)C4=C(C)C(=CC=C4)NC(=O)C5=CC6=C(CCCC6)S5)C=C2` (stereo unspecified) are 528, 612 and 580.
On the same counts, the results for `ClC1=C(N\C2=N\CCN2)C3=NSN=C3C=C1` are 412, 609 and 541.
As for `CCOc1cc(C(=O)Nc2ccc(Cl)c(-c3nc4ccccc4[nH]3)c2)cc(OCC)c1OCC`, the “area under concentration-response curve” value in the test on CU-ACC1 was found to be 477; in the test with CU-ACC2, 618; in the test on NCI-H295R it was 549.
On the same counts, the results for `CCc1cccc2c3c([nH]c12)[C@@](CC)(CC(=O)O)OCC3` are 518, 605 and 525.
`COC1=CC=C(C=C1)/C2=C(O)/C(=O)C3=C(O)C=C(O)C(=C3O2)CC=C(C)C`: the “area under concentration-response curve” value in the test with CU-ACC1 is 415; with CU-ACC2, 388; in the test with NCI-H295R it was 416.
With `CN1C(=O)/C=C(/NCCN(CCO)CCCC2=CC=C(C=C2)[N+]([O-])=O)N(C)C1=O`, the “area under concentration-response curve” value is 544 in the test on CU-ACC1, 643 with CU-ACC2 and 586 in the test with NCI-H295R.
On the same counts, the results for `CCCc1c(OCCCOc2ccc(OCC(=O)O)cc2)ccc(C(C)=O)c1O` are 518, 607 and 548.
On the same counts, the results for `Clc1ccccc1C(c1ccccc1)(c1ccccc1)n1cccn1` are 496, 489 and 520.
On to `O=C1c2ccccc2-c2n[nH]c3cccc1c23`, for which the “area under concentration-response curve” value in the test with CU-ACC1 turned out to be 494; with CU-ACC2, 587; in the test with NCI-H295R it was 530.
On the same counts, the results for `CNc1nc(Nc2cnn([C@H]3CCN(C4COC4)C[C@@H]3F)c2Cl)ncc1C(F)(F)F` are 562, 604 and 566.
As to `CC(C)Oc1ccc(-c2nc(-c3cccc4c3CC[C@@H]4NCCO)no2)cc1C#N`, the “area under concentration-response curve” value in the test with CU-ACC1 stood at 370; in the test on CU-ACC2 it was 502; in the test on NCI-H295R it was 481.
On the same counts, the results for `CC(C)OC(=O)C(C(=O)OC(C)C)=C1S\C=C/S1` are 517, 638 and 575.
On the same counts, the results for `CC1CNc2c(cccc2[S+](=O)([O-])N[C@@H](CCCNC(=N)N)C(=O)N2CC[C@@H](C)C[C@@H]2C(=O)O)C1` (stereo partly specified) are 502, 547 and 507.
On the same counts, the results for `NCC/1=C/NC(=S)N1[C@H]2CCC3=C(F)C=C(F)C=C3C2` are 495, 547 and 550.
As to `Cc1ccc(-n2c(C)cc(-c3nnc4n3CCCCC4)c2C)cc1`, the “area under concentration-response curve” value with CU-ACC1 was 575; in the test with CU-ACC2, 647; in the test on NCI-H295R it was 595.
On the same counts, the results for `NC(=O)c1ncn([C@@H]2O[C@H](CO)[C@@H](O)[C@H]2O)n1` are 511, 504 and 530.
On the same counts, the results for `COC1=CC(=C2C(=O)N\C(=N/C2=C1)C3=CC(=C(OCCO)C(=C3)C)C)OC` are 532, 532 and 541.
On the same counts, the results for `C[C@]12CC[C@@H]3c4ccc(OC(=O)N(CCCl)CCCl)cc4CC[C@H]3[C@@H]1CC[C@@H]2OP(=O)([O-])[O-]` are 489, 466 and 533.
`COc1cc2c(cc1-c1c(C)noc1C)ncc1[nH]c(=O)n([C@H](C)c3ccccn3)c12`: the “area under concentration-response curve” value was 490 in the test with CU-ACC1, 515 in the test on CU-ACC2 and 459 in the test with NCI-H295R.
On the same counts, the results for `CC(COc1ccccc1)N(CCCl)Cc1ccccc1` (stereo unspecified) are 549, 653 and 584.
On the same counts, the results for `CCN1\C(=C(C(=O)NC)/C(=O)C2=C1N=C(C=C2)C#CC(C)(O)COC)N` (stereo unspecified) are 482, 579 and 510.
On the same counts, the results for `C=C(C)[C@@H]1CC[C@]2(C(=O)O)CC[C@]3(C)[C@H](CC[C@@H]4[C@@]5(C)CC[C@H](O)C(C)(C)[C@@H]5CC[C@]43C)[C@@H]12` are 541, 646 and 587.
On to `O=C(O)C1CCCN(CCC=C(c2ccccc2)c2ccccc2)C1` (stereo unspecified), for which the figures for the “area under concentration-response curve” value in the test with CU-ACC1, with CU-ACC2 and in the test on NCI-H295R were 540, 520 and 539, respectively.
`C[C@@H](c1ncncc1F)[C@](O)(Cn1cncn1)c1ccc(F)cc1F`: the “area under concentration-response curve” value is 409 with CU-ACC1, 513 in the test with CU-ACC2 and 475 with NCI-H295R.
On the same counts, the results for `CC1CCN(c2cc(N3CCN(C)CC3)ccc2NC(=O)c2cc(C#N)c[nH]2)CC1` are 542, 600 and 544.
On the same counts, the results for `N=C(N)c1ccc2[nH]c(-c3cc(CC(=O)N[C@@H](CC(=O)O)C(=O)O)cc(-c4cc([S+](N)(=O)[O-])ccc4O)c3O)nc2c1` are 595, 620 and 562.
On the same counts, the results for `NC[C@H]1O[C@H](O[C@H]2[C@H](O)[C@@H](O[C@H]3O[C@H](CO)[C@@H](O)[C@H](N)[C@H]3O)[C@H](N)C[C@@H]2N)[C@H](N)C[C@@H]1O` are 486, 579 and 535.
Take `CC1(C)O[C@@H]2C[C@H]3[C@@H]4CCC/5=C/C(=O)/C=C\[C@]5(C)[C@@]4(F)[C@@H](O)C[C@]3(C)[C@@]2(O1)C(=O)CO`: the “area under concentration-response curve” value in the test with CU-ACC1 came out at 551; with CU-ACC2, 517; in the test with NCI-H295R, 548.
`CN(C)CC(C)(C)CNc1nn2c(-c3ccccc3)nnc2cc1C1CCC1`: the “area under concentration-response curve” value in the test with CU-ACC1 turned out to be 473; in the test with CU-ACC2, 566; with NCI-H295R, 469.
On the same counts, the results for `C[C@@H](C1CC[C@@]2(O)C3=CC(=O)[C@@H]4C[C@@H](O)[C@@H](O)C[C@]4(C)[C@H]3CC[C@]12C)[C@H](O)CCC(C)(C)O` (stereo partly specified) are 411, 488 and 424.
On the same counts, the results for `CC[C@@H](C(N)=O)N1CCCC1=O` are 532, 520 and 545.
On the same counts, the results for `[O-]C(=O)C/1=N/C(=O)NC(=O)N1` are 418, 608 and 551.
